Biological target: T1, A2AR (hADORA2A-HEK293 cells) (Homo sapiens, UniProt P29274)
T1 construct: expressed in transfected cells; host or cells: HEK293 (hADORA2A-HEK293)
Assay: functional cAMP production assay: NECA stimulation of cAMP production and its inhibition by A2AR antagonists
Format: cell-based
Settings: not given
Method: The antagonistic activities of the triazolotriazine derivatives of the present invention were measured in a functional cAMP production assay. The assay consists of NECA stimulation of cAMP production and its inhibition by A2AR antagonists in A2AR-expressing HEK293 cells (hADORA2A-HEK293). All cells were cultured in complete medium at 37° C. in 5% CO2. The cells were detached with pancreatin and collected at 200 g for 5 min. After resuspending the cells in fresh complete medium, the cell viability is counted using the trypan blue exclusion method. […] After the cells were diluted with Hank's buffered saline solution containing HEPES (5 mM), BSA stabilizer (0.1%) and […] Rolipram (10 μM), cells were loaded into white opaque 384-well plates (˜500 cells/well, 10 μl/well) and incubated with test compound at a suitable concentration range (11 concentrations) for 20 min at room temperature. Then the A2A receptor agonist NECA (final concentration=EC80, which was determined in the same experiment slightly earlier) was added to the sample and the mixture was incubated again for 30 min at 37° C. […] The inhibition rate (%) was calculated according to the following formula. The IC50 values were calculated from concentration-inhibition (%) curves after log transformation.

T1 sequence (P29274 whole entry): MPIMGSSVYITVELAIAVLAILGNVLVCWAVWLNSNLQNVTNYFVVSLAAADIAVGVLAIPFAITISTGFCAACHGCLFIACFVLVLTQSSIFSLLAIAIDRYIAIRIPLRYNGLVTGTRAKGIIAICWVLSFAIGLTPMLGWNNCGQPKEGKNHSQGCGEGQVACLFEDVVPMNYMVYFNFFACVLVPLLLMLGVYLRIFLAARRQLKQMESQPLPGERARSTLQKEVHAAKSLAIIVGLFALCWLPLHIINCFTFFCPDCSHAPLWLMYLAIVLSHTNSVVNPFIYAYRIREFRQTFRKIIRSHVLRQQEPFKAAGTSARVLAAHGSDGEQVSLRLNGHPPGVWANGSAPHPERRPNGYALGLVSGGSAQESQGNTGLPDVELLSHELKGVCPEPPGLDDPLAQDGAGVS

SMILES | IC50 [nM]
Nc1nc(NCCc2ccc(OCCN3CC3)cc2)nc2nc(-c3ccco3)nn12 [Example 124, N5-(4-(2-(Aziridin-1-yl)ethoxy)phenethyl)-2-(furan-2-yl)-[1,2,4]triazolo[1,5-a][1,3,5]triazine-5,7-diamine] | 8.4

Same assay, conditions: A2AR-expressing HEK293 cells (hADORA2A-HEK293); NECA at EC80; TR-FRET cAMP readout; read-out: A2AR Potency (IC50, inhibition of NECA-stimulated cAMP production)

SMILES | IC50 [nM]
Nc1nc(NCCc2ccc(OCC3CCN(Cc4cccnc4)C3)cc2)nc2nc(-c3ccco3)nn12 (stereo in doubt) [Example 283, (S)-2-(Furan-2-yl)-N5-(4-((1-(pyridin-3-ylmethyl)pyrrolidin-3-yl)methoxy)phenethyl)-[1,2,4]triazolo[1,5-a][1,3,5]triazine-5,7-diamine] | 43.2
CN(C)CCOc1ccc(CCNc2nc(N)n3nc(-c4ccco4)nc3n2)cc1 [Example 13, N5-(4-(2-(Dimethylamino)ethoxy)phenethyl)-2-(furan-2-yl)-[1,2,4]triazolo[1,5-α][1,3,5]-triazine-5,7-diamine] | 18
Nc1nc(NCCc2ccc(OCCN3CCCC3)cc2)nc2nc(-c3ccco3)nn12 [Example 16, 2-(Furan-2-yl)-N5-(4-(2-(pyrrolidin-1-yl)ethoxy)phenethyl)-[1,2,4]triazolo[1,5-α][1,3,5]-triazine-5,7-diamine] | 24
Nc1nc(NCCc2ccc(OCCCN3CCCC3)cc2)nc2nc(-c3ccco3)nn12 [Example 19, 2-(Furan-2-yl)-N5-(4-(3-(pyrrolidin-1-yl)propoxy)phenethyl)-[1,2,4]triazolo[1,5-α][1,3,5]-triazine-5,7-diamine] | 29
Nc1nc(NCCc2ccc(OCc3ccccn3)cc2)nc2nc(-c3ccco3)nn12 [Example 26, 2-(Furan-2-yl)-N5-(4-(pyridin-2-ylmethoxy)phenethyl)-[1,2,4]triazolo[1,5-α][1,3,5]triazine-5,7-diamine] | 8
Nc1nc(NCCc2ccc(OCc3ccncc3)cc2)nc2nc(-c3ccco3)nn12 [Example 29, 2-(Furan-2-yl)-N5-(4-(pyridin-4-ylmethoxy)phenethyl)-[1,2,4]triazolo[1,5-α][1,3,5]triazine-5,7-diamine] | 7
Nc1nc(NCCc2ccc(OCc3cccnc3)cc2)nc2nc(-c3ccco3)nn12 [Example 32, 2-(Furan-2-yl)-N5-(4-(pyridin-3-ylmethoxy)phenethyl)-[1,2,4]triazolo[1,5-α][1,3,5]triazine-5,7-diamine] | 8
Nc1nc(NCCc2ccc(OCCCc3ccncc3)cc2)nc2nc(-c3ccco3)nn12 [Example 36, 2-(Furan-2-yl)-N5-(4-(3-(pyridin-4-yl)propoxy)phenethyl)-[1,2,4]triazolo[1,5-α][1,3,5]-triazine-5,7-diamine] | 11
Nc1nc(NCCc2ccc(OCCCc3cccnc3)cc2)nc2nc(-c3ccco3)nn12 [Example 40, 2-(Furan-2-yl)-N5-(4-(3-(pyridin-3-yl)propoxy)phenethyl)-[1,2,4]triazolo[1,5-α][1,3,5]-triazine-5,7-diamine] | 11
Nc1nc(NCCc2c[nH]cn2)nc2nc(-c3ccco3)nn12 [Example 42, N5-(2-(1H-Imidazol-4-yl)ethyl)-2-(furan-2-yl)-[1,2,4]triazolo[1,5-α][1,3,5]triazine-5,7-diamine] | 129
Nc1nc(NCCc2ccncn2)nc2nc(-c3ccco3)nn12 [Example 44, 2-(Furan-2-yl)-N5-(2-(pyrimidin-4-yl)ethyl)-[1,2,4]triazolo[1,5-α][1,3,5]triazine-5,7-diamine] | 63.8
Nc1nc(NCCc2ccc(OCCN3CCCCCC3)cc2)nc2nc(-c3ccco3)nn12 [Example 51, N5-(4-(2-(Azepan-1-yl)ethoxy)phenethyl)-2-(furan-2-yl)-[1,2,4]triazolo[1,5-α][1,3,5]triazine-5,7-diamine] | 25.4
Nc1nc(NCCc2ccc(OCCCN3CCCCC3)cc2)nc2nc(-c3ccco3)nn12 [Example 54, 2-(Furan-2-yl)-N5-(4-(3-(piperidin-1-yl)propoxy)phenethyl)-[1,2,4]triazolo[1,5-α][1,3,5]-triazine-5,7-diamine] | 19.2
COCCOc1ccc(CCNc2nc(N)n3nc(-c4ccco4)nc3n2)cc1 [Example 57, 2-(Furan-2-yl)-N5-(4-(2-methoxyethoxy)phenethyl)-[1,2,4]triazolo[1,5-α][1,3,5]triazine-5,7-diamine] | 7
COCCOCCOc1ccc(CCNc2nc(N)n3nc(-c4ccco4)nc3n2)cc1 [Example 60, 2-(Furan-2-yl)-N5-(4-(2-(2-methoxyethoxy)ethoxy)phenethyl)-[1,2,4]triazolo[1,5-α][1,3,5]triazine-5,7-diamine] | 10
COCCOCCOCCOc1ccc(CCNc2nc(N)n3nc(-c4ccco4)nc3n2)cc1 [Example 65, 2-(Furan-2-yl)-N5-(4-(2-(2-(2-methoxyethoxy)ethoxy)ethoxy)phenethyl)-[1,2,4]triazolo[1,5-α][1,3,5]triazine-5,7-diamine] | 21.5
COCCOCCOCCOCCOc1ccc(CCNc2nc(N)n3nc(-c4ccco4)nc3n2)cc1 [Example 70, N5-(4-(2,5,8,11-Tetraoxatridecan-13-yloxy)phenethyl)-2-(furan-2-yl)-[1,2,4]triazolo[1,5-α][1,3,5]triazine-5,7-diamine] | 19
COCCOCCOCCOCCOCCOc1ccc(CCNc2nc(N)n3nc(-c4ccco4)nc3n2)cc1 [Example 74, N5-(4-(2,5,8,11,14-Pentaoxahexadecan-16-yloxy)phenethyl)-2-(furan-2-yl)-[1,2,4]triazolo[1,5-α][1,3,5]triazine-5,7-diamine] | 32.3
COCCOCCOCCOCCOCCOCCOc1ccc(CCNc2nc(N)n3nc(-c4ccco4)nc3n2)cc1 [Example 78, N5-(4-(2,5,8,11,14,17-Hexaoxanonadecan-19-yloxy)phenethyl)-2-(furan-2-yl)-[1,2,4]triazolo[1,5-α][1,3,5]triazine-5,7-diamine] | 31.3
Nc1nc(NCCc2ccc(OCCN3CCOCC3)cc2)nc2nc(-c3ccco3)nn12 [Example 82, 2-(Furan-2-yl)-N5-(4-(2-morpholinoethoxy)phenethyl)-[1,2,4]triazolo[1,5-α][1,3,5]triazine-5,7-diamine] | 9
Nc1nc(NCCc2ccc(OCCCN3CCOCC3)cc2)nc2nc(-c3ccco3)nn12 [Example 86, 2-(Furan-2-yl)-N5-(4-(3-morpholinopropoxy)phenethyl)-[1,2,4]triazolo[1,5-α][1,3,5]triazine-5,7-diamine] | 14.3
Nc1nc(NCCc2ccc(OCCc3ccccn3)cc2)nc2nc(-c3ccco3)nn12 [Example 90, 2-(Furan-2-yl)-N5-(4-(2-(pyridin-2-yl)ethoxy)phenethyl)-[1,2,4]triazolo[1,5-α][1,3,5]triazine-5,7-diamine] | 10.9
Nc1nc(NCCc2ccc(OCCOCCN3CCOCC3)cc2)nc2nc(-c3ccco3)nn12 [Example 94, 2-(Furan-2-yl)-N5-(4-(2-(2-morpholinoethoxy)ethoxy)phenethyl)-[1,2,4]triazolo[1,5-α][1,3,5]triazine-5,7-diamine] | 16
Nc1nc(NCCc2ccc(OCCN3CCC3)cc2)nc2nc(-c3ccco3)nn12 [Example 98, N5-(4-(2-(Azetidin-1-yl)ethoxy)phenethyl)-2-(furan-2-yl)-[1,2,4]triazolo[1,5-α][1,3,5]triazine-5,7-diamine] | 48.5
COCCOCCOCCOCCOCCOCCOCCOc1ccc(CCNc2nc(N)n3nc(-c4ccco4)nc3n2)cc1 [Example 102, N5-(4-(2-(2-(2-(2-(2-(2-(2-Methoxyethoxy)ethoxy)ethoxy)ethoxy)ethoxy)ethoxy)ethoxy)-phenethyl)-2-(furan-2-yl)-[1,2,4]triazolo[1,5-a][1,3,5]triazine-5,7-diamine] | 19
COCCOCCOCCOCCOCCOCCOCCOCCOc1ccc(CCNc2nc(N)n3nc(-c4ccco4)nc3n2)cc1 [Example 109, N5-(4-(2-(2-(2-(2-(2-(2-(2-(2-Methoxyethoxy)ethoxy)ethoxy)ethoxy)ethoxy)ethoxy)ethoxy)-ethoxy)phenethyl)-2-(furan-2-yl)-[1,2,4]triazolo[1,5-a][1,3,5]triazine-5,7-diamine] | 55
CN(C)CCCOc1ccc(CCNc2cc(N)n3nc(-c4ccco4)nc3c2)cc1 [Example 113, N^7-(4-(3-(Dimethylamino)propoxy)phenethyl)-2-(furan-2-yl)-[1,2,4]triazolo[1,5-a]pyridine-5,7-diamine] | 15
COCCOCCOCCOCCOCCOCCOCCOCCOCCOc1ccc(CCNc2nc(N)n3nc(-c4ccco4)nc3n2)cc1 [Example 117, N5-(4-(2-(2-(2-(2-(2-(2-(2-(2-(2-Methoxyethoxy)ethoxy)ethoxy)ethoxy)ethoxy)ethoxy)-ethoxy)ethoxy)ethoxy)phenethyl)-2-(furan-2-yl)-[1,2,4]triazolo[1,5-a][1,3,5]triazine-5,7-diamine] | 38
CN1CCC(COc2ccc(CCNc3nc(N)n4nc(-c5ccco5)nc4n3)cc2)CC1 [Example 121, N5-(4-((1-Methylpiperidin-4-yl)methoxy)phenethyl)-2-(furan-2-yl)-[1,2,4]triazolo[1,5-a][1,3,5]triazine-5,7-diamine] | 14.1
Nc1nc(NCCc2ccc(OCCF)cc2)nc2nc(-c3ccco3)nn12 [Example 142, N5-(4-(2-Fluoroethoxy)phenethyl)-2-(furan-2-yl)-[1,2,4]triazolo[1,5-a][1,3,5]triazine-5,7-diamine] | 8.09

— patent US11845751B2, “Triazolotriazine derivatives as A2A receptor antagonists” (ZHEJIANG VIMGREEN PHARMACEUTICALS, LTD., priority 2018, dated 2023)
